This is an account of results in BindingDB's records for PubMed 10215672 (Taisho Pharmaceutical, 1999).

Experiment [1] has as its target T1, Corticotropin-releasing factor receptor 1 (Rattus norvegicus, UniProt P35353).
T1 sequence (P35353 whole entry): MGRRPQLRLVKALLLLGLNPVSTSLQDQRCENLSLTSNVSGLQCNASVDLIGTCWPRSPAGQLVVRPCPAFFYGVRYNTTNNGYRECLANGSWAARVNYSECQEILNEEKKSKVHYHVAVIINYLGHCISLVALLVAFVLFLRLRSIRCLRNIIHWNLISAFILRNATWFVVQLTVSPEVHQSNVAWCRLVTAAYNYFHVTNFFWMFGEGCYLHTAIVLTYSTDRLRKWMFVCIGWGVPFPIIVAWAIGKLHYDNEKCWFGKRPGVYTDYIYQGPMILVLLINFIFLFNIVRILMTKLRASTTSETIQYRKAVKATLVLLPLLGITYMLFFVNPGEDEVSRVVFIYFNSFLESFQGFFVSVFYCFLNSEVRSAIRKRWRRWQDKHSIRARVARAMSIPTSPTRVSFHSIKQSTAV

The target of experiment [2] is Corticotropin-releasing factor receptor 2 (Rattus norvegicus, UniProt P47866).

Structures are written as SMILES. “And” between values parts separate entries of the source, which are not always exact repeats. Identical values can stand only once.

Chain of Corticotropin-releasing factor receptor 2 (P47866 whole entry): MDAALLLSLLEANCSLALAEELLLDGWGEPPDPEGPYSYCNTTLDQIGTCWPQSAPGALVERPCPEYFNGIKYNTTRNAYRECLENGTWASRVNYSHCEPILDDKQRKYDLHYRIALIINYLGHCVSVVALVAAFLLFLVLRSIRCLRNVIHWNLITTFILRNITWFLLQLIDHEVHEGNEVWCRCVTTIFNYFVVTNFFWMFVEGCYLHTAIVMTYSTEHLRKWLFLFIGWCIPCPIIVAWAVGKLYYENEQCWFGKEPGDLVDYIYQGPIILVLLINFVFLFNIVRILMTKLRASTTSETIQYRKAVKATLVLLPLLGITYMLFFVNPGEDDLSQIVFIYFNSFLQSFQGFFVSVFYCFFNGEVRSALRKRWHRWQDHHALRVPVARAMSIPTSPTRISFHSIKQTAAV

For `CCCCN(CC)c1nc(C)nc2c1c(C)cn2-c1c(C)cc(C)cc1C`, the Ki in experiment [1] is 1.8 nM; in experiment [2], > 10000 nM.

As to `CCN(c1nc(C)cc(N2CCC=C(c3cccc(F)c3)C2)n1)c1ccc(CC(C)C)cc1Br` [CRA1001], the Ki in experiment [1] was 22.3 nM and 18.6 nM; in experiment [2], > 10000 nM.

For the compound `COCCN(CCOC)c1nc(C)nc2c1nnn2-c1ccc(C(C)C)cc1Br`, the Ki in experiment [1] was 14.8 nM and 20.7 nM; in experiment [2], > 10000 nM.
